In ChEMBL document CHEMBL5550123, “Discovery of novel pyridone-benzamide derivatives possessing a 1-methyl-2-benzimidazolinone moiety as potent EZH2 inhibitors for the treatment of B-cell lymphomas” (Bioorg Med Chem, 2024):

How the values were obtained:
KARPAS-422 [1] = test: Induction of apoptosis in human KARPAS-422 cells assessed as late apoptotic cells at 20 nM incubated for 72 hrs again compound diluted in growth medium measured after 96 hrs by annexin-V FITC and propidium iodide based flow cytometry analysis (reference value: 0.74%); type: functional; settings: time 168 hrs
KARPAS-422 [2] = test: Induction of cell cycle arrest in human KARPAS-422 cells assessed as accumulation of cells at S phase at 2.5 nM incubated for 72 hrs again compound diluted in growth medium measured after 96 hrs by propidium iodide staining based flow cytometry analysis (reference value: 35.89%); type: functional; settings: time 168 hrs
KARPAS-422 [3] = test: Antiproliferative activity against human KARPAS-422 cells assessed as inhibition of cell growth measured after 72 hrs by CCK-8 method; type: functional, cell-based; settings: KARPAS-422, 72 h
KARPAS-422 [4] = test: Induction of apoptosis in human KARPAS-422 cells assessed as late apoptotic cells at 10 nM incubated for 72 hrs again compound diluted in growth medium measured after 96 hrs by annexin-V FITC and propidium iodide based flow cytometry analysis (reference value: 0.74%); type: functional; settings: time 168 hrs
[5] = Inhibition of EZH2 Y641F mutant (unknown origin) preincubated for 15 mins followed by substrate addition and measured after 45 mins by AlphaLISA assay; design: species or system Homo sapiens
KARPAS-422 [6] = test: Induction of apoptosis in human KARPAS-422 cells assessed as late apoptotic cells at 2.5 nM incubated for 72 hrs again compound diluted in growth medium measured after 96 hrs by annexin-V FITC and propidium iodide based flow cytometry analysis (reference value: 0.74%); type: functional; settings: time 168 hrs
KARPAS-422 [7] = test: Induction of cell cycle arrest in human KARPAS-422 cells assessed as accumulation of cells at G2 phase at 2.5 nM incubated for 72 hrs again compound diluted in growth medium measured after 96 hrs by propidium iodide staining based flow cytometry analysis (reference value: 16.41%); type: functional; settings: time 168 hrs
KARPAS-422 [8] = test: Induction of apoptosis in human KARPAS-422 cells assessed as early apoptotic cells at 10 nM incubated for 72 hrs again compound diluted in growth medium measured after 96 hrs by annexin-V FITC and propidium iodide based flow cytometry analysis (reference value: 2.62%); type: functional; settings: time 168 hrs
KARPAS-422 [9] = test: Induction of cell cycle arrest in human KARPAS-422 cells assessed as accumulation of cells at G1 phase at 2.5 nM incubated for 72 hrs again compound diluted in growth medium measured after 96 hrs by propidium iodide staining based flow cytometry analysis (reference value: 47.71%); type: functional; settings: time 168 hrs
KARPAS-422 [10] = test: Induction of apoptosis in human KARPAS-422 cells assessed as early apoptotic cells at 5 nM incubated for 72 hrs again compound diluted in growth medium measured after 96 hrs by annexin-V FITC and propidium iodide based flow cytometry analysis (reference value: 2.62%); type: functional; settings: time 168 hrs
KARPAS-422 [11] = test: Induction of cell cycle arrest in human KARPAS-422 cells assessed as accumulation of cells at G1 phase at 5 nM incubated for 72 hrs again compound diluted in growth medium measured after 96 hrs by propidium iodide staining based flow cytometry analysis (reference value: 47.71%); type: functional; settings: time 168 hrs
KARPAS-422 [12] = test: Induction of apoptosis in human KARPAS-422 cells assessed as late apoptotic cells at 10 nM incubated for 72 hrs again compound diluted in growth medium measured after 96 hrs by annexin-V FITC and propidium iodide based flow cytometry analysis (reference value: […]%); type: functional; settings: time 168 hrs
KARPAS-422 [13] = test: Induction of apoptosis in human KARPAS-422 cells assessed as viable cells at 10 nM incubated for 72 hrs again compound diluted in growth medium measured after 96 hrs by annexin-V FITC and propidium iodide based flow cytometry analysis (reference value: 95.57%); type: functional; settings: time 168 hrs, read-out: Activity
[14] = Metabolic stability in human liver microsomes assessed as half life at 1 uM measured upto 60 mins in presence of NADPH by LC-MS/MS analysis; type: ADME, Microsome
[15] = Inhibition of EZH2 Y641N mutant (unknown origin) preincubated for 15 mins followed by substrate addition and measured after 45 mins by AlphaLISA assay; design: species or system Homo sapiens
KARPAS-422 [16] = test: Induction of apoptosis in human KARPAS-422 cells assessed as late apoptotic cells at 5 nM incubated for 72 hrs again compound diluted in growth medium measured after 96 hrs by annexin-V FITC and propidium iodide based flow cytometry analysis (reference value: […]%); type: functional; settings: time 168 hrs
KARPAS-422 [17] = test: Induction of cell cycle arrest in human KARPAS-422 cells assessed as accumulation of cells at G1 phase at 20 nM incubated for 72 hrs again compound diluted in growth medium measured after 96 hrs by propidium iodide staining based flow cytometry analysis (reference value: 47.71%); type: functional; settings: time 168 hrs
KARPAS-422 [18] = test: Induction of apoptosis in human KARPAS-422 cells assessed as late apoptotic cells at 20 nM incubated for 72 hrs again compound diluted in growth medium measured after 96 hrs by annexin-V FITC and propidium iodide based flow cytometry analysis (reference value: […]%); type: functional; settings: time 168 hrs
KARPAS-422 [19] = test: Induction of apoptosis in human KARPAS-422 cells assessed as late apoptotic cells at 5 nM incubated for 72 hrs again compound diluted in growth medium measured after 96 hrs by annexin-V FITC and propidium iodide based flow cytometry analysis (reference value: 0.74%); type: functional; settings: time 168 hrs
KARPAS-422 [20] = test: Induction of apoptosis in human KARPAS-422 cells incubated for 72 hrs again compound diluted in growth medium measured after 96 hrs by annexin-V FITC and propidium iodide based flow cytometry analysis; type: functional, cell-based; settings: dose 2.5-20 nM, time 168.0 hrs
KARPAS-422 [21] = test: Induction of cell cycle arrest in human KARPAS-422 cells assessed as accumulation of cells at S phase at 20 nM incubated for 72 hrs again compound diluted in growth medium measured after 96 hrs by propidium iodide staining based flow cytometry analysis (reference value: 35.89%); type: functional; settings: time 168 hrs
KARPAS-422 [22] = test: Induction of cell cycle arrest in human KARPAS-422 cells assessed as accumulation of cells at G2 phase at 20 nM incubated for 72 hrs again compound diluted in growth medium measured after 96 hrs by propidium iodide staining based flow cytometry analysis (reference value: 16.41%); type: functional; settings: time 168 hrs
KARPAS-422 [23] = test: Induction of apoptosis in human KARPAS-422 cells assessed as early apoptotic cells at 2.5 nM incubated for 72 hrs again compound diluted in growth medium measured after 96 hrs by annexin-V FITC and propidium iodide based flow cytometry analysis (reference value: 2.62%); type: functional; settings: time 168 hrs
KARPAS-422 [24] = test: Induction of apoptosis in human KARPAS-422 cells assessed as viable cells at 20 nM incubated for 72 hrs again compound diluted in growth medium measured after 96 hrs by annexin-V FITC and propidium iodide based flow cytometry analysis (reference value: 95.57%); type: functional; settings: time 168 hrs, read-out: Activity
KARPAS-422 [25] = test: Induction of cell cycle arrest in human KARPAS-422 cells assessed as accumulation of cells at G1 phase at 10 nM incubated for 72 hrs again compound diluted in growth medium measured after 96 hrs by propidium iodide staining based flow cytometry analysis (reference value: 47.71%); type: functional; settings: time 168 hrs
[26] = Metabolic stability in human liver microsomes assessed as intrinsic clearance at 1 uM measured upto 60 mins in presence of NADPH by LC-MS/MS analysis; type: ADME, Microsome; settings: read-out: CLH
KARPAS-422 [27] = test: Induction of apoptosis in human KARPAS-422 cells assessed as viable cells at 5 nM incubated for 72 hrs again compound diluted in growth medium measured after 96 hrs by annexin-V FITC and propidium iodide based flow cytometry analysis (reference value: 95.57%); type: functional; settings: time 168 hrs, read-out: Activity
KARPAS-422 [28] = test: Induction of apoptosis in human KARPAS-422 cells assessed as early apoptotic cells at 20 nM incubated for 72 hrs again compound diluted in growth medium measured after 96 hrs by annexin-V FITC and propidium iodide based flow cytometry analysis (reference value: 2.62%); type: functional; settings: time 168 hrs
KARPAS-422 [29] = test: Induction of apoptosis in human KARPAS-422 cells assessed as late apoptotic cells at 2.5 nM incubated for 72 hrs again compound diluted in growth medium measured after 96 hrs by annexin-V FITC and propidium iodide based flow cytometry analysis (reference value: […]%); type: functional; settings: time 168 hrs
KARPAS-422 [30] = test: Induction of cell cycle arrest in human KARPAS-422 cells assessed as accumulation of cells at S phase at 5 nM incubated for 72 hrs again compound diluted in growth medium measured after 96 hrs by propidium iodide staining based flow cytometry analysis (reference value: 35.89%); type: functional; settings: time 168 hrs
KARPAS-422 [31] = test: Induction of cell cycle arrest in human KARPAS-422 cells assessed as accumulation of cells at G2 phase at 10 nM incubated for 72 hrs again compound diluted in growth medium measured after 96 hrs by propidium iodide staining based flow cytometry analysis (reference value: 16.41%); type: functional; settings: time 168 hrs
KARPAS-422 [32] = test: Induction of cell cycle arrest in human KARPAS-422 cells assessed as accumulation of cells at S phase at 10 nM incubated for 72 hrs again compound diluted in growth medium measured after 96 hrs by propidium iodide staining based flow cytometry analysis (reference value: 35.89%); type: functional; settings: time 168 hrs
KARPAS-422 [33] = test: Induction of apoptosis in human KARPAS-422 cells assessed as viable cells at 2.5 nM incubated for 72 hrs again compound diluted in growth medium measured after 96 hrs by annexin-V FITC and propidium iodide based flow cytometry analysis (reference value: 95.57%); type: functional; settings: time 168 hrs, read-out: Activity
KARPAS-422 [34] = test: Induction of cell cycle arrest in human KARPAS-422 cells assessed as accumulation of cells at G2 phase at 5 nM incubated for 72 hrs again compound diluted in growth medium measured after 96 hrs by propidium iodide staining based flow cytometry analysis (reference value: 16.41%); type: functional; settings: time 168 hrs

## CCN(c1cc(-c2ccc3c(c2)n(C)c(=O)n3C2CCN(C)CC2)cc(C(=O)NCc2c(C)cc(C)[nH]c2=O)c1C)C1CCC(N(C)C)CC1 (centres undefined)
KARPAS-422 [1]
  Activity: 12.28%
KARPAS-422 [2]
  Activity: 31.43%
KARPAS-422 [3]
  IC50: 3.52 nM
KARPAS-422 [4]
  Activity: 5.47%
[5]
  IC50: 0.03 nM
KARPAS-422 [6]
  Activity: 2.57%
KARPAS-422 [7]
  Activity: 16.32%
KARPAS-422 [8]
  Activity: 7.93%
KARPAS-422 [9]
  Activity: 52.26%
KARPAS-422 [10]
  Activity: 2.29%
KARPAS-422 [11]
  Activity: 55.91%
KARPAS-422 [12]
  Activity: 4.8%
KARPAS-422 [13]
  viability at 0.01 µM: 81.8%
[14]
  half-life at 1 µM: 2.96 h
[15]
  IC50: 0.08 nM
KARPAS-422 [16]
  Activity: 2.96%
KARPAS-422 [17]
  Activity: 65.03%
KARPAS-422 [18]
  Activity: 6.81%
KARPAS-422 [19]
  Activity: 8.08%
KARPAS-422 [20]
  Activity: Dose-Dependent Effect
KARPAS-422 [21]
  Activity: 24.24%
KARPAS-422 [22]
  Activity: 10.74%
KARPAS-422 [23]
  Activity: 4.23%
KARPAS-422 [24]
  viability at 0.02 µM: 73.8%
KARPAS-422 [25]
  Activity: 59.1%
[26]
  microsomal CLint at 1 µM: 7.87 µL/min/mg
KARPAS-422 [27]
  viability at 0.005 µM: 86.7%
KARPAS-422 [28]
  Activity: 7.09%
KARPAS-422 [29]
  Activity: 3.84%
KARPAS-422 [30]
  Activity: 28.46%
KARPAS-422 [31]
  Activity: 14.6%
KARPAS-422 [32]
  Activity: 26.31%
KARPAS-422 [33]
  viability at 0.0025 µM: 89.3%
KARPAS-422 [34]
  Activity: 15.64%
